# Measured values taken from patent EP0551200A1, “Protein phosphatase inhibitors for use in therapy” (priority 1992, dated 1993).
# Test system: mouse fibroblasts
# Test: Total cellular protein synthesis in mouse fibroblasts
# Format: cell-based
# Conditions: data not shown
# Experimental: Quiescent human fibroblasts were stimulated with MEM containing 0.5 µM okadaic acid in the presence or absence of cycloheximide (10 µg/ml) for the times indicated in Fig. 11. […] Treatment of cells with cycloheximide enhanced the induction of Egr-1 mRNA by okadaic acid at 1.5 and 3 h (Fig. 11). Similarly puromycin, like cycloheximide, also "superinduces" the induction of the Egr-1 mRNA by okadaic acid (data not shown). […] However, in view that protein phosphatase 1 (PP1) and protein phosphatase 2A (PP2A) regulate enzymes associated with cellular protein synthesis (Cohen, Annu. Rev. Biochem. 58, 453-508, 1989) the effect of okadaic acid on protein synthesis in mouse and human fibroblasts was also measured. […] By then the Egr-1 mRNA message was already induced. A corollary to this is a comparison of the amount of ³⁵S-methionine labelled Egr-1 protein immunoprecipitated by R5232 antibodies from protein phosphatase inhibitor-treated and control cells. […] Thus, the induction of the Egr-1 gene by phosphatase inhibitors is unlikely to be mediated by their late inhibitory effects on cellular protein synthesis.
smiles,measurement,setting,value
C=C1[C@@H](O)[C@@H]2O[C@]3(CC[C@H](/C=C/[C@@H](C)[C@@H]4CC(C)=C[C@@]5(O[C@H](C[C@@](C)(O)C(=O)O)CC[C@H]5O)O4)O3)CC[C@H]2O[C@@H]1[C@@H](O)C[C@H](C)[C@H]1O[C@@]2(CCCCO2)CC[C@H]1C [okadaic acid],effect on total cellular protein synthesis (in words),"0.5 µM, first 2 h",little measurable effect
same,inhibition at 0.5 µM,"Mus musculus, Fibroblast, at 4 h",≤ 50%
